Laboratory results from patent publication US20020198254A1, “Polyamide analogs” (priority 2000, published 2002).
Like-named read-outs stand apart in the source and are kept apart here.

How the values were obtained:
Format in all cases: cell-based
Staphylococcus aureus = assay: MIC assay, S. aureus; settings: CAMHB, 16 h
Description: (§1) These assays are adapted from NCCLS protocols M7-A4 and M27-A (NCCLS vol 17:9 and vol 17:2) as modified by Sandven, S. Clin. Micro. (1999) 37:12, p.3856-3859. MIC values for Aspergillus fumigatus were determined using NCCLS protocol M38-P.
(§2) All compounds were dissolved in 100% DMSO to a stock concentration of 10 mM and use fresh or stored at −80° C. Stock compounds were kept frozen until needed and used freshly with no more then one freeze-thaw cycle. When used for test purposes, compounds were diluted in the appropriate media depending on the organism being tested.
(§3) For yeast and aspergillus species, seven 1:2 serial dilutions of compound in appropriate media buffered with MOPS at pH 7.0 were prepared such that the final starting test compound concentrations were 50.0 uM for yeast and 50 uM aspergillus species. For bacteria, dilutions were made in growth media used for the particular bacteria being tested.
(§4) Inoculums are made in the same manner as yeast except all dilutions are made in normal saline, with a final dilution of 1:200 and an inoculum of 10 μL. VRE are vancomycin resistant enterococci, BM4147 and UCD-3 represent two different sources of VRE. MRSA are […] resistant Staphylococcus Aureus.

Moraxella catarrhalis = assay: MIC assay, M. catarrhalis; settings: BHI, 16 h
Description: as §1, §2, §3, §4

Candida albicans = assay: MIC assay, yeast C. albicans; settings: RPMI, 48 h, Alamar Blue
Bacillus cereus = assay: MIC assay, B. cereus; settings: CAMHB, 16 h
Description: as §1, §2, §3, §4

[1] = tested on: VRE-CSUC4 (vancomycin resistant enterococci); assay: MIC assay, VRE strain CSUC-4; settings: for MIC: Enterococcus, VRE
Description: as §1, §2, §3, §4

[2] = tested on: VRE-UCD3 (vancomycin resistant enterococci); assay: MIC assay, VRE strain UCD-3; settings: for MIC: Enterococcus, VRE
Description: as §1, §2, §3, §4

Haemophilus influenzae = assay: MIC assay, H. influenzae; settings: HTM, 24 h
Description: as §1, §2, §3, §4

Streptococcus pneumoniae = assay: MIC assay, S. pneumoniae; settings: CAMHB + 5% LHB, 24 h
Description: as §1, §2, §3, §4

Pseudomonas aeruginosa = assay: MIC assay, P. aeruginosa; settings: CAMHB, 16 h
Description: as §1, §2, §3, §4

[3] = tested on: VRE-BM4147 (vancomycin resistant enterococci); assay: MIC assay, VRE strain BM4147; settings: for MIC: Enterococcus, VRE
Description: as §1, §2, §3, §4

[4] = tested on: VRE-UL17 (vancomycin resistant enterococci); assay: MIC assay, VRE strain UL-17; settings: for MIC: Enterococcus, VRE
Description: as §1, §2, §3, §4

Cn1cc(NC(=O)c2cc(NC(=O)CN)cn2C)cc1C(=O)NCCNC(=O)c1cc(NC(=O)c2cc(NC(=O)CN)cn2C)cn1C [Compound 10, bis-1,2-{4-[(NH2CH2CONH)-1-methyl-1H-pyrrol-2-yl-carbonylamino]-1-methyl-1H-pyrrol-2-ylcarbonylamino}ethane]
>45.5 µM: MIC Assay Other Strains: S. aureus (Staphylococcus aureus) | MIC Assay Other Strains: M. catarrhalis (Moraxella catarrhalis) | MIC Assay Other Strains: B. cereus (Bacillus cereus) | MIC Assay VRE Strains: CSUC-4 van25 ([1]; 25 μg/mL Vancomycin - 24 h) | MIC Assay VRE Strains: CSUC-4 van0 ([1]; No vancomycin - 16 h) | MIC Assay VRE Strains: UCD-3 van25 ([2]; 25 μg/mL Vancomycin - 24 h) | MIC Assay VRE Strains: UCD-3 van0 ([2]; No vancomycin - 16 h) | MIC Assay Other Strains: H influenzae (Haemophilus influenzae) | MIC Assay Other Strains: S. pneumoniae (Streptococcus pneumoniae) | MIC Assay Other Strains: P. aeruginosa (Pseudomonas aeruginosa) | MIC Assay VRE Strains: BM4147 van25 ([3]; 25 μg/mL Vancomycin - 24 h) | MIC Assay VRE Strains: BM4147 van0 ([3]; No vancomycin - 16 h) | MIC Assay VRE Strains: UL-17 van25 ([4]; 25 μg/mL Vancomycin - 24 h) | MIC Assay VRE Strains: UL-17 van0 ([4]; No vancomycin - 16 h)
>44.4 µM: MIC Assay C. Albicans (Candida albicans)

Cn1cc(NC(=O)CN)cc1C(=O)Nc1cc(C(=O)NC2CCC(CC3CCC(NC(=O)c4cc(NC(=O)c5cc(NC(=O)CN)cn5C)cn4C)CC3)CC2)n(C)c1 (centres unmarked) [Compound 21]
>45.5 µM: MIC Assay Other Strains: S. aureus (Staphylococcus aureus) | MIC Assay Other Strains: M. catarrhalis (Moraxella catarrhalis) | MIC Assay Other Strains: B. cereus (Bacillus cereus) | MIC Assay VRE Strains: CSUC-4 van25 ([1]; 25 μg/mL Vancomycin - 24 h) | MIC Assay VRE Strains: CSUC-4 van0 ([1]; No vancomycin - 16 h) | MIC Assay VRE Strains: UCD-3 van25 ([2]; 25 μg/mL Vancomycin - 24 h) | MIC Assay VRE Strains: UCD-3 van0 ([2]; No vancomycin - 16 h) | MIC Assay Other Strains: H influenzae (Haemophilus influenzae) | MIC Assay Other Strains: S. pneumoniae (Streptococcus pneumoniae) | MIC Assay Other Strains: P. aeruginosa (Pseudomonas aeruginosa) | MIC Assay VRE Strains: BM4147 van25 ([3]; 25 μg/mL Vancomycin - 24 h) | MIC Assay VRE Strains: BM4147 van0 ([3]; No vancomycin - 16 h) | MIC Assay VRE Strains: UL-17 van25 ([4]; 25 μg/mL Vancomycin - 24 h) | MIC Assay VRE Strains: UL-17 van0 ([4]; No vancomycin - 16 h)
>44.4 µM: MIC Assay C. Albicans (Candida albicans)

Cn1cc(NC(=O)c2cc(NC(=O)CN)cn2C)cc1C(=O)NCCCN(CCCNC(=O)c1cc(NC(=O)c2cc(NC(=O)CN)cn2C)cn1C)C(=O)OCc1ccccc1 [Compound 42]
22.7 µM: MIC Assay VRE Strains: CSUC-4 van25 ([1]; 25 μg/mL Vancomycin - 24 h) | MIC Assay VRE Strains: CSUC-4 van0 ([1]; No vancomycin - 16 h) | MIC Assay VRE Strains: UL-17 van0 ([4]; No vancomycin - 16 h)
>44.4 µM: MIC Assay C. Albicans (Candida albicans)
45.5 µM: MIC Assay VRE Strains: UCD-3 van25 ([2]; 25 μg/mL Vancomycin - 24 h) | MIC Assay VRE Strains: UCD-3 van0 ([2]; No vancomycin - 16 h) | MIC Assay VRE Strains: UL-17 van25 ([4]; 25 μg/mL Vancomycin - 24 h)
11.4 µM: MIC Assay Other Strains: M. catarrhalis (Moraxella catarrhalis) | MIC Assay Other Strains: B. cereus (Bacillus cereus)
1.4 µM: MIC Assay Other Strains: S. pneumoniae (Streptococcus pneumoniae)
>45.5 µM: MIC Assay Other Strains: S. aureus (Staphylococcus aureus) | MIC Assay Other Strains: H influenzae (Haemophilus influenzae) | MIC Assay Other Strains: P. aeruginosa (Pseudomonas aeruginosa) | MIC Assay VRE Strains: BM4147 van25 ([3]; 25 μg/mL Vancomycin - 24 h) | MIC Assay VRE Strains: BM4147 van0 ([3]; No vancomycin - 16 h)

Cn1cc(NC(=O)c2cc(NC(=O)c3cc(NC(=O)CN)cn3C)cn2C)cc1C(=O)NCCCN(CCCN)CCCNC(=O)c1cc(NC(=O)c2cc(NC(=O)c3cc(NC(=O)CN)cn3C)cn2C)cn1C [Compound 66, N,N-bis-{4-{4-[(NH2CH2CONH)-1-methyl-1H-pyrrol-2-yl-carbonylamino]-1-methyl-1H-pyrrol-2-ylcarbonylamino}-1-methyl-1H-pyrrol-2-yl-carbonylaminopropyl}-N-(3-aminoethylpropyl)amine]
>44.4 µM: MIC Assay C. Albicans (Candida albicans)
>45.5 µM: MIC Assay Other Strains: S. aureus (Staphylococcus aureus) | MIC Assay Other Strains: M. catarrhalis (Moraxella catarrhalis) | MIC Assay Other Strains: B. cereus (Bacillus cereus) | MIC Assay VRE Strains: CSUC-4 van25 ([1]; 25 μg/mL Vancomycin - 24 h) | MIC Assay VRE Strains: UCD-3 van25 ([2]; 25 μg/mL Vancomycin - 24 h) | MIC Assay Other Strains: H influenzae (Haemophilus influenzae) | MIC Assay Other Strains: S. pneumoniae (Streptococcus pneumoniae) | MIC Assay Other Strains: P. aeruginosa (Pseudomonas aeruginosa) | MIC Assay VRE Strains: BM4147 van25 ([3]; 25 μg/mL Vancomycin - 24 h) | MIC Assay VRE Strains: UL-17 van25 ([4]; 25 μg/mL Vancomycin - 24 h)

Cn1cc(NC(=O)c2cc(NC(=O)CN)cn2C)cc1C(=O)NCCCN(CCCNC(=O)c1cc(NC(=O)c2cc(NC(=O)CN)cn2C)cn1C)CCCNC(=O)c1cc(NC(=O)c2cc(NC(=O)CN)cn2C)cn1C [Compound 74, tris-{4-[(NH2CH2CONH)-1-methyl-1H-pyrrol-2-yl-carbonylamino]-1-methyl-1H-pyrrol-2-yl-carbonylaminopropyl}amine]
>44.4 µM: MIC Assay C. Albicans (Candida albicans)
>45.5 µM: MIC Assay Other Strains: H influenzae (Haemophilus influenzae) | MIC Assay Other Strains: P. aeruginosa (Pseudomonas aeruginosa)
11.4 µM: MIC Assay Other Strains: B. cereus (Bacillus cereus) | MIC Assay VRE Strains: UCD-3 van25 ([2]; 25 μg/mL Vancomycin - 24 h) | MIC Assay VRE Strains: UL-17 van0 ([4]; No vancomycin - 16 h)
5.7 µM: MIC Assay VRE Strains: UCD-3 van0 ([2]; No vancomycin - 16 h)
2.8 µM: MIC Assay Other Strains: S. pneumoniae (Streptococcus pneumoniae)
1.4 µM: MIC Assay Other Strains: M. catarrhalis (Moraxella catarrhalis)
22.7 µM: MIC Assay Other Strains: S. aureus (Staphylococcus aureus) | MIC Assay VRE Strains: CSUC-4 van25 ([1]; 25 μg/mL Vancomycin - 24 h) | MIC Assay VRE Strains: CSUC-4 van0 ([1]; No vancomycin - 16 h) | MIC Assay VRE Strains: BM4147 van25 ([3]; 25 μg/mL Vancomycin - 24 h) | MIC Assay VRE Strains: BM4147 van0 ([3]; No vancomycin - 16 h) | MIC Assay VRE Strains: UL-17 van25 ([4]; 25 μg/mL Vancomycin - 24 h)

Cn1cc(NC(=O)c2cc(NC(=O)CN)cn2C)cc1C(=O)NCCCNCCCNC(=O)c1cc(NC(=O)c2cc(NC(=O)CN)cn2C)cn1C [Compound 113]
45.5 µM: MIC ([1]; 25 μg/mL Vancomycin - 24 h, read-out: MIC Assay VRE Strains: CSUC-4 van25)
11.4 µM: MIC (Bacillus cereus; Bacillus cereus, read-out: MIC Assay Other Strains: B. cereus) | MIC ([2]; 25 μg/mL Vancomycin - 24 h, read-out: MIC Assay VRE Strains: UCD-3 van25) | MIC (Streptococcus pneumoniae; Streptococcus pneumoniae, read-out: MIC Assay Other Strains: S. pneumoniae)
> 45.5 µM: MIC (Staphylococcus aureus; Staphylococcus aureus, read-out: MIC Assay Other Strains: S. aureus) | MIC (Haemophilus influenzae; Haemophilus influenzae, read-out: MIC Assay Other Strains: H influenzae) | MIC (Pseudomonas aeruginosa; Pseudomonas aeruginosa, read-out: MIC Assay Other Strains: P. aeruginosa) | MIC ([4]; No vancomycin - 16 h, read-out: MIC Assay VRE Strains: UL-17 van0)
> 44.4 µM: MIC (Candida albicans; Candida albicans)
22.7 µM: MIC ([1]; No vancomycin - 16 h, read-out: MIC Assay VRE Strains: CSUC-4 van0) | MIC ([2]; No vancomycin - 16 h, read-out: MIC Assay VRE Strains: UCD-3 van0) | MIC ([3]; 25 μg/mL Vancomycin - 24 h, read-out: MIC Assay VRE Strains: BM4147 van25) | MIC ([3]; No vancomycin - 16 h, read-out: MIC Assay VRE Strains: BM4147 van0) | MIC ([4]; 25 μg/mL Vancomycin - 24 h, read-out: MIC Assay VRE Strains: UL-17 van25)
5.7 µM: MIC (Moraxella catarrhalis; Moraxella catarrhalis, read-out: MIC Assay Other Strains: M. catarrhalis)
